{"source": "patent US20140303216A1", "about": "“COMPOSITIONS AND METHODS FOR INDUCING DISRUPTION OF BLOOD VASCULATURE AND FOR REDUCING ANGIOGENESIS” (BOARD OF REGENTS, THE UNIVERSITY OF TEXAS SYSTEM, priority 2011, published 2014)", "key": {"[1]": {"tested_on": "developing Xenopus embryos", "assay": "Xenopus embryo angiogenesis, in situ hybridization for erg/apinr and kdr:GFP imaging", "format": "in vivo, Xenopus laevis", "details": "for anti-angiogenic activity of other benzimidazoles: Xenopus in vivo, at dosages at which TBZ reduces angiogenesis (FIG. 14)", "source_text": "(§1) Female adult Xenopus were ovulated by injections of human chorionic gonadotropin, and eggs were fertilized in vitro and dejellied in 3% cysteine (pH 7.9) and subsequently reared in ⅓×Marc's modified Ringer's (MMR) solution. For microinjections, embryos were placed in a solution of 2% Ficoll in ⅓×MMR solution, injected using forceps and an Oxford universal manipulator, reared in 2% Ficoll in ⅓×MMR to stage 9, then washed and reared in ⅓×MMR solution alone. For bilateral rab11b knock-down experiments, the posterior cardinal vein and intersomitic veins were targeted by injecting Morpholino antisense oligonucleotides (MOs) into the two ventral cells equatorially at the four-cell stage. For unilateral knockdown, only one ventral cell was injected. MOs were injected at 40 ng per blastomere. For the experiments to see the drug effects, embryos were placed in a solution of each chemical dissolved in 1% DMSO diluted in ⅓×MMR during indicated stages. For bead micro-surgery implantation, Affi-Gel Blue Gel beads (Bio-Rad) were soaked with 0.7 mg/ml recombinant mouse VEGF 164 aa (R&D systems) or BSA as a control. Whole-mount in situ hybridization for erg and apinr was performed as described^29.\nTo analyze action of TBZ precisely on inhibition of angiogenesis and disruption of vasculature, we tested TBZ on two different developmental stages. Xenopus late tailbud embryos at stage 31 were selected for testing the inhibitory effect of TBZ on angiogenesis (FIG. 3A-D). This embryonic stage coincides with the onset of intersomitic vein (ISV) angiogenesis, the process of forming smaller blood vessels by sprouting from pre-existing blood vessels. To observe disruption of existing vasculature, we selected stage 35/36 embryos in which the posterior cardinal vein (PCV) and ISV are already developed (FIG. 15)."}, "Xenopus embryos": {"tested_on": "Xenopus embryos", "assay": "Xenopus embryo morphology and developmental defects", "format": "in vivo", "details": "FIG. 14; 250 μM for 2-(Chloromethyl)benzimidazole", "source_text": "as §1, with “1⁄3×Marc's” for “⅓×Marc's”, “1⁄3×MMR” for “⅓×MMR”, “[…] performed as described^29. Immunostaining for Xenopus” for “erg and apinr”, “previously described (Lee et al., 2008). Embryos at stage 35-36 were fixed in 1×MEMFA. 12/101 (1:500; DSHB), and primary antibodies were detected with Alexa Fluor-488 or 555 goat anti-mouse Immunoglobulin (IgG).” for “described^29.”"}, "angiogenesis": {"tested_on": "angiogenesis", "details": "from the literature; cited from earlier work"}, "lung cancer": {"tested_on": "lung cancer", "details": "treatment of lung cancer; cited from earlier work"}, "HUVECs": {"tested_on": "HUVECs", "assay": "HUVEC wound scratch cell migration assay", "format": "cell-based, human", "details": "added to 250 μM TBZ in 1% DMSO; Y27632 preincubated 2 h", "method": "HUVECs (1.2×10^5 cells) were seeded into 24-well plate for 24 h, and the monolayers were wounded identically. Then, cells were washed with PBS and treated with EBM-2 containing 1% DMSO or 250 μM TBZ dissolved in 1% DMSO with combination of Y27632 or GGPP (Sigma). In the case of Y27632 treatment, cells were preincubated for 2 h before wounding. Cells were photographed at time zero and after 15 h, and the ratios of cell free area [(0 h-15 h)/0 h] were calculated."}}, "data": [{"smiles": "O=C(O)c1cccc2[nH]cnc12", "note": "[1H-Benzimidazole-4-carboxylic acid]", "values": [{"measurement": "anti-angiogenic activity of other benzimidazoles", "setting": "[1]", "value": "not anti-angiogenic"}]}, {"smiles": "ClCc1nc2ccccc2[nH]1", "note": "[2-(Chloromethyl)benzimidazole]", "values": [{"measurement": "developmental (birth) defects in Xenopus", "setting": "Xenopus embryos", "value": "pleiotropic birth defects"}, {"measurement": "anti-angiogenic activity of other benzimidazoles", "setting": "[1]", "value": "not anti-angiogenic"}]}, {"smiles": "Nc1nc2ccc(C(=O)c3ccc(F)cc3)cc2[nH]1", "note": "[2-Aminoflubendazole]", "values": [{"measurement": "anti-angiogenic activity of other benzimidazoles", "setting": "[1]", "value": "not anti-angiogenic"}]}, {"smiles": "Nc1ccc2[nH]c(C(F)(F)F)nc2c1", "note": "[5-Amino-2-(trifluoromethyl)benzimidazole]", "values": [{"measurement": "anti-angiogenic activity of other benzimidazoles", "setting": "[1]", "value": "not anti-angiogenic"}]}, {"smiles": "Clc1ccc2nc(C(Cl)(Cl)Cl)[nH]c2c1", "note": "[5-Chloro-2-(trichloromethyl)benzimidazole]", "values": [{"measurement": "anti-angiogenic activity of other benzimidazoles", "setting": "[1]", "value": "not anti-angiogenic"}]}, {"smiles": "O=c1[nH]cc(F)c(=O)[nH]1", "note": "[5-fluorouracil]", "values": [{"measurement": "Known effects on angiogenesis", "setting": "angiogenesis", "value": "Inhibitor^†"}]}, {"smiles": "Cc1ccc2c(=O)c3cccc(CC(=O)O)c3oc2c1C", "note": "[ASA404]", "values": [{"measurement": "efficacy in Phase III clinical trial", "setting": "lung cancer", "value": "failed to show efficacy"}]}, {"smiles": "c1ccc2[nH]cnc2c1", "note": "[Benzimidazole]", "values": [{"measurement": "anti-angiogenic activity of other benzimidazoles", "setting": "[1]", "value": "not anti-angiogenic"}, {"measurement": "activity in reducing angiogenesis", "setting": "[1]; doses up to 1 mM", "value": "inactive"}]}, {"smiles": "O=S(=O)([O-])[O-].[Cu+2]", "note": "[CuSO4]", "values": [{"measurement": "Known effects on angiogenesis", "setting": "angiogenesis", "value": "Activators^‡"}]}, {"smiles": "CC(C)=CCC/C(C)=C/CC/C(C)=C/CC/C(C)=C/COP(=O)(O)OP(=O)(O)O", "note": "[GGPP, geranyl-geranyl pyrophosphate]", "values": [{"measurement": "reversal of TBZ-impeded HUVEC migration by added compound", "setting": "HUVECs", "value": "did not reverse"}]}, {"smiles": "COc1c(C)c2c(c(O)c1C/C=C(\\C)CCC(=O)O)C(=O)OC2", "note": "[Mycophenolic acid]", "values": [{"measurement": "Known effects on angiogenesis", "setting": "angiogenesis", "value": "Inhibitor*"}]}, {"smiles": "[N]=O", "note": "[Nitric oxide]", "values": [{"measurement": "Known effects on angiogenesis", "setting": "angiogenesis", "value": "Activator^#"}]}, {"smiles": "C[C@@H](N)[C@H]1CC[C@H](C(=O)Nc2ccncc2)CC1", "note": "[Y27632]", "values": [{"measurement": "reversal of TBZ-impeded HUVEC migration by added compound", "setting": "HUVECs", "value": "significant and dose-dependent rescue"}]}, {"smiles": "CC[C@H](C)C(=O)O[C@H]1C[C@@H](C)C=C2C=C[C@H](C)[C@H](CC[C@@H]3C[C@@H](O)CC(=O)O3)[C@H]21", "note": "[lovastatin]", "values": [{"measurement": "Known effects on angiogenesis", "setting": "angiogenesis", "value": "inhibit angiogenesis"}]}]}
